From patent US20220062240A1, “METHODS OF TREATING CANCER USING A CLK INHIBITOR” (BioSplice Therapeutics, Inc., priority 2018, published 2022)
Where two headings read alike, the source gives them in different places.

Legend:
[1] = system: Wnt-responsive Sp5-Luc reporter in SW480 colon carcinoma cells; assay: Wnt activity screening assay (Sp5-Luc reporter); assay type: cell-based; details: Homo sapiens
Text: The screening assay for Wnt activity is described as follows. Reporter cell lines can be generated by stably transducing cancer cell lines (e.g., colon cancer) or primary cells (e.g., IEC-6 intestinal cells) with a lentiviral construct that includes a Wnt-responsive promoter driving expression of the firefly luciferase gene.
SW480 colon carcinoma cells were transduced with a lentiviral vector expressing luciferase with a human Sp5 promoter consisting of a sequence of eight TCF/LEF binding sites. […] These stably transduced SW480 cells were expanded in cell culture and used for all further screening activities. […] For Sp5-Luc reporter gene assays, the cells were plated at 4,000 cells/well in 384-well plates with a DMEM medium containing 1% fetal bovine serum, and 1% Penicillin-Streptomycin and incubated for 36 to 48 hours at 37° C. and 5% CO2. Following incubation, 15 μL of BriteLite Plus luminescence reagent (Perkin Elmer) was added to each well of the 384-well assay plates. The plates were placed on an orbital shaker for 2 min and then luminescence was quantified using the Envision (Perkin Elmer) plate reader.

[2] = target: T1, CLK2 (Homo sapiens, UniProt P49760); assay: CLK2 kinase activity assay (Z-lyte, Ser/Thr 6 peptide); assay type: biochemical; details: recombinant CLK2 kinase, ATP 60 μM; read-out: EC50
T1 construct: purchased Thermo Fisher (Life Technologies), Z'-LYTE Kinase Assay Kits
T1 sequence (P49760 whole entry): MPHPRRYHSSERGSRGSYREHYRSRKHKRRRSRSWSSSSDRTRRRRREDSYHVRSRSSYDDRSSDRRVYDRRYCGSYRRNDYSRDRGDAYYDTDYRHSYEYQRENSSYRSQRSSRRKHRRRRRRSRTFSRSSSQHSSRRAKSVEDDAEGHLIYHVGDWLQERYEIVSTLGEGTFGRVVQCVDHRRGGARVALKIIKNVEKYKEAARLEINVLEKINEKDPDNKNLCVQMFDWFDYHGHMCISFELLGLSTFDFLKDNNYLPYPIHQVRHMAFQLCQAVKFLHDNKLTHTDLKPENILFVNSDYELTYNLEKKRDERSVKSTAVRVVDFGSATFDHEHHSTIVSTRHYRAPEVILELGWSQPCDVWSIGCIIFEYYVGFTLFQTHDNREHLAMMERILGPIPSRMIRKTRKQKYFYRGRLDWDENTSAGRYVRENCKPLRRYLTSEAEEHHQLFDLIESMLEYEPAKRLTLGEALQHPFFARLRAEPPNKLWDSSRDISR
Method: All reactions were performed in duplicate.

[3] = system: all 50 cell lines; assay: CellTiter-Glo Viability Assay, average across all cell lines; assay type: cell-based; details: Homo sapiens; across all 50 cell lines; read-out: average EC50 for inhibition of cancer cell proliferation
Method: Fifty-one human cancer cell lines (breast cancer (8 cell lines), colorectal cancer (6 cell lines), haematopoietic & lymphoid tumors (13 cell lines), liver cancer (3 cell lines), lung cancer (4 cell lines), ovarian cancer (4 cell lines), pancreatic cancer (8 cell lines), and prostate cancer (5 cell lines)) were tested to determine the effects of representative compounds of Formulas (I)-(XII) on cellular proliferation, as evaluated using the CellTiter-Glo® Viability Assay.
For the Cell Viability Assays, cells were plated at 300-3,000 cells/well in 384-well plates in their respective media containing 1% Penicillin-Streptomycin and incubated for four days at 37° C. and 5% CO2. Twenty-eight replicates of DMSO-treated cells served as controls and cells treated with compound were performed in duplicate.
After incubation, 10 μL of CellTiter-Glo® (Promega) was added to each well allowed to incubate for approximately 12 minutes. This reagent results in cell lysis and generation of a luminescent signal proportional to the amount of ATP present. The amount of ATP is directly proportional to the number of metabolically active, viable cells present in culture. The CellTiter-Glo® Assay generates a luminescent signal, produced by the luciferase reaction (Promega.com).
After incubation, the luminescence signal was read using an EnVision™ Multilabel Plate Reader (Perkin Elmer). Dose-response curves were generated and EC50 concentration values were calculated using Dotmatics' Studies Software (Bishops Stortford, UK).

[4] = target: CLK3 (Homo sapiens, UniProt P49761); assay: CLK3 kinase activity assay (Z-lyte, Ser/Thr 18 peptide)
CLK3, sequence (P49761 whole entry): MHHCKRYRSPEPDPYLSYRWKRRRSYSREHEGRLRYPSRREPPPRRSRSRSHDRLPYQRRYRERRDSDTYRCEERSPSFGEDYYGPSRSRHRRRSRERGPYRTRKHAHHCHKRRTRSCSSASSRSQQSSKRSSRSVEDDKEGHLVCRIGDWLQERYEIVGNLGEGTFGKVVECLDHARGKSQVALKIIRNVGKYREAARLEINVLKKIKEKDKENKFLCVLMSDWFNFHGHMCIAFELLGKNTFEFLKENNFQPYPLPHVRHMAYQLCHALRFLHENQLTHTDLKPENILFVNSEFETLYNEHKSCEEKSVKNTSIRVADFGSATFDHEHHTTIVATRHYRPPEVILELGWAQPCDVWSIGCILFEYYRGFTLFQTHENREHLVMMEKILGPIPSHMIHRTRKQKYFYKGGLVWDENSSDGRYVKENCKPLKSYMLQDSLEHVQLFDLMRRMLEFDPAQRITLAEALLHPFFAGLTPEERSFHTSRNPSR

[5] = system: SW480 colorectal cancer cells; assay: Gene expression qRT-PCR in SW480 cells; assay type: cell-based; details: Homo sapiens
Method: SW480 colorectal cancer cells were plated at 1×10^4 cells per well into 96-well plates (Olympus). Compounds were diluted in cell culture media and added to the cells at a final concentration of 3 μM. Cells were treated with vehicle (DMSO) and compounds for 24 hours. N=3 biological replicates per conditions.
Following treatment, cells were lysed, and cDNA was generated using the Fastlane Cell cDNA Kit (Qiagen).
384-well PCR plates with pre-spotted primers for CLK1, CLK2, CLK3, DVL2, LRP5, SRSF1, SRSF3, SRSF4, SRSF5, TCF7, TCF7L2 were ordered from Bio-Rad. The generated cDNA, along with a SYBR Green qRT-PCR master mix (SsoAdvanced™ Universal SYBR® Green Supermix, Bio-Rad) was added to the PCR plates.
qRT-PCR was performed on the plates using a CFX384 Touch™ Real-Time PCR Detection System (Bio-Rad) with the manufacturer's recommended thermal cycling conditions.
Data from the qRT-PCR assay was normalized to the GAPDH and HPRT1 housekeeping genes and set gene expression fold change was set relative to vehicle-treated cells using the ΔΔCt analysis method.

[6] = SW480 Sp5-Luc reporter, 36 to 48 hours, read-out: EC50
[7] = SW480, 3 μM, 24 hours, relative to DMSO, read-out: gene expression fold change CLK1
[8] = SW480, 3 μM, 24 hours, relative to DMSO, read-out: gene expression fold change CLK2
[9] = SW480, 3 μM, 24 hours, relative to DMSO, read-out: gene expression fold change CLK3
[10] = SW480, 3 μM, 24 hours, relative to DMSO, read-out: gene expression fold change DVL2
[11] = SW480, 3 μM, 24 hours, relative to DMSO, read-out: gene expression fold change LRP5
[12] = SW480, 3 μM, 24 hours, relative to DMSO, read-out: gene expression fold change SRSF1
[13] = SW480, 3 μM, 24 hours, relative to DMSO, read-out: gene expression fold change SRSF3
[14] = SW480, 3 μM, 24 hours, relative to DMSO, read-out: gene expression fold change SRSF4
[15] = SW480, 3 μM, 24 hours, relative to DMSO, read-out: gene expression fold change SRSF5
[16] = SW480, 3 μM, 24 hours, relative to DMSO, read-out: gene expression fold change TCF7
[17] = SW480, 3 μM, 24 hours, relative to DMSO, read-out: gene expression fold change TCF7L2

| SMILES | EC50 [1, 6] [nM] | EC50 [2] [nM] | EC50 [4] [nM] | fold induction at 3 µM [5, 7] | fold induction at 3 µM [5, 8] | fold induction at 3 µM [5, 9] | fold induction at 3 µM [5, 10] | fold induction at 3 µM [5, 11] | fold induction at 3 µM [5, 12] | fold induction at 3 µM [5, 13] | fold induction at 3 µM [5, 14] | fold induction at 3 µM [5, 15] | fold induction at 3 µM [5, 16] | fold induction at 3 µM [5, 17] | further results |
| --- | --- | --- | --- | --- | --- | --- | --- | --- | --- | --- | --- | --- | --- | --- | --- |
| CN(C)CCOc1cncc(-c2cc3c(-c4cc5c(-c6cccnc6)ccnc5[nH]4)n[nH]c3cn2)c1 [Compound 49] | > 10000 | 2.2 | 19.3 | – | – | – | – | – | – | – | – | – | – | – | EC50 [3]: 9720 nM |
| O=C(Nc1c[nH]nc1-c1nc2c(-c3cccc(F)c3)cncc2[nH]1)C1CCNCC1 [Compound 89] | 2170 | 2.2 | 30.5 | – | – | – | – | – | – | – | – | – | – | – | EC50 [3]: 8500 nM |
| Nc1cncc(-c2ccc3cnc(NC(=O)c4ccc(OC5CCNCC5)cc4)cc3c2)c1 [Compound 20] | 169 | 1 | 19 | 0.07 | 0.08 | 0.35 | 0.42 | 0.37 | 1.56 | 0.5 | 0.33 | 0.63 | 0.47 | 0.6 | – |
| CCS(=O)(=O)c1cccc(-c2cc(C(=O)NC3CCN(C)CC3)c(C)c3[nH]c4ncc(C)cc4c23)c1 [Compound 24] | – | 3 | 70 | – | – | – | – | – | – | – | – | – | – | – | EC50 ([1]; SW480): 320 nM; fold induction at 3 µM ([5]; SW480, 24 h, read-out: gene expression fold change CLK1): 0.35; fold induction at 3 µM ([5]; SW480, 24 h, read-out: gene expression fold change CLK2): 0.19; fold induction at 3 µM ([5]; SW480, 24 h, read-out: gene expression fold change CLK3): 0.19; fold induction at 3 µM ([5]; SW480, 24 h, read-out: gene expression fold change DVL2): 0.39; fold induction at 3 µM ([5]; SW480, 24 h, read-out: gene expression fold change LRP5): 0.34; fold induction at 3 µM ([5]; SW480, 24 h, read-out: gene expression fold change SRSF1): 0.46; fold induction at 3 µM ([5]; SW480, 24 h, read-out: gene expression fold change SRSF3): 0.31; fold induction at 3 µM ([5]; SW480, 24 h, read-out: gene expression fold change SRSF4): 0.37; fold induction at 3 µM ([5]; SW480, 24 h, read-out: gene expression fold change SRSF5): 0.49; fold induction at 3 µM ([5]; SW480, 24 h, read-out: gene expression fold change TCF7): 0.49; fold induction at 3 µM ([5]; SW480, 24 h, read-out: gene expression fold change TCF7L2): 0.33 |
| CC(C)N1CCC(n2cc(C(=O)Nc3cc4cc(-c5cnn(C)c5)ccc4cn3)cn2)CC1 [Compound 11] | 13 | 1 | 5 | 0.02 | 0.04 | 0.09 | 0.11 | 0.09 | 0.74 | 0.17 | 0.15 | 0.24 | 0.19 | 0.17 | – |
| CC(C)CC(=O)Nc1cncc(-c2cc3c(-c4nc5c(-c6cc(F)cc(OCCN7CCCC7)c6)cncc5[nH]4)n[nH]c3cn2)c1 [Compound 45] | > 10000 | – | – | – | – | – | – | – | – | – | – | – | – | – | EC50 [3]: 8490 nM |
| CN1CCC(C(=O)Nc2c[nH]nc2-c2nc3c(-c4cccc(F)c4)cccc3[nH]2)CC1 [Compound 1] | 39 | 1 | 10 | 0.02 | 0.02 | 0.01 | 0.14 | 0.18 | 0.32 | 0.13 | 0.03 | 0.39 | 0.44 | 0.24 | – |
| Cc1n[nH]c2ncc(-c3cncc(OC[C@@H](N)Cc4ccccc4)n3)cc12 [Compound 4] | 525 | 2 | 1280 | 0.43 | 0.35 | 0.74 | 0.11 | 0.06 | 0.25 | 0.05 | 0.7 | 0.27 | 0.21 | 0.13 | – |
| O=C(Nc1cc2cc(-c3cncc(NC4CCNC[C@@H]4F)n3)ccc2cn1)C1CC1 (some centres unmarked) [Compound 22] | 14 | 2 | 18 | 0.04 | 0.04 | 0.04 | 0.41 | 0.21 | 0.53 | 0.18 | 0.04 | 0.36 | 0.75 | 0.68 | – |
| Cc1ncc(-c2cnc3[nH]nc(-c4cc5c(-c6cc(F)cc(NCCN(C)C)c6)ccnc5[nH]4)c3c2)n1C [Compound 52] | – | 1.9 | 26.6 | – | – | – | – | – | – | – | – | – | – | – | EC50 [3]: 8460 nM |
| CC(C)CC(=O)Nc1cncc(-c2ccc3[nH]nc(-c4nc5c(-c6cc(F)cc(OCCN(C)C)c6)cncc5[nH]4)c3c2)c1 [Compound 39] | 199 | 4 | 10 | – | – | – | – | – | – | – | – | – | – | – | – |
| Cc1nc(Nc2n[nH]c3c2CN(C(=O)N[C@H](CN(C)C)c2ccccc2)C3(C)C)c2sccc2n1 [Compound 25] | 114 | 10 | 144 | 0.07 | 0.09 | 0.08 | 0.21 | 0.09 | 0.2 | 0.1 | 0.09 | 0.19 | 0.21 | 0.11 | – |
| Cc1ncc(NC(=O)c2n[nH]c3ccc(-c4cnn(C5CCNCC5)c4)cc23)s1 [Compound 5] | 257 | 0.3 | 27 | 0.15 | 0.12 | 0.55 | 0.37 | 0.43 | 1.52 | 0.46 | 0.27 | 0.6 | 0.3 | 0.24 | – |
| NC1CN(c2cncc(-c3cc4c(-c5nc6c(-c7cccc(F)c7)cccc6[nH]5)n[nH]c4cn3)n2)C1 [Compound 44] | 79 | 18 | 108 | – | – | – | – | – | – | – | – | – | – | – | – |
